Results reported in ChEMBL document CHEMBL3885881, “DrugMatrix”.

Species: Rattus norvegicus
Experiment: DrugMatrix - Regimen: Daily Repeat
Assay type: toxicity, organism-based, Sprague-Dawley
Design: regimen Daily Repeat, gender Male, age 6-8 weeks
Details: in vivo, po, 60 mg/kg, route oral GAVAGE, dose level High, vehicle 100 % WATER; for ABSOLUTE BASOPHIL / ABSOLUTE EOSINOPHIL / ABSOLUTE LYMPHOCYTE / ABSOLUTE MONOCYTE / ABSOLUTE SEGMENTED NEUTROPHIL / BASOPHIL / EOSINOPHIL / ERYTHROCYTE COUNT / HEMATOCRIT / HEMOGLOBIN / LEUKOCYTE COUNT / LYMPHOCYTE / MEAN CORPUSCULAR HEMOGLOBIN / MEAN CORPUSCULAR HEMOGLOBIN CONCENTRATION / MEAN CORPUSCULAR VOLUME / MONOCYTE / NEUTROPHIL / NUCLEATED RED BLOOD CELLS / PLATELET COUNT: tissue Blood
[1] = 72 h, tissue Plasma, time 3 day
[2] = 120 h, tissue Plasma, time 5 day

Nc1ccc(O)c(N)c1 [2,4-DIAMINOPHENOL] was tested, and the “ABSOLUTE BASOPHIL” value (72 h, time 3 day) was 0 CELLS/uL, the “ABSOLUTE EOSINOPHIL” value (72 h, time 3 day) was 193.67 CELLS/uL and the “ABSOLUTE LYMPHOCYTE” value (72 h, time 3 day) was 11960 CELLS/uL. The “ABSOLUTE MONOCYTE” value (72 h, time 3 day) was 874.33 CELLS/uL, the “ABSOLUTE SEGMENTED NEUTROPHIL” value (72 h, time 3 day) was 1505.33 CELLS/uL and the BASOPHIL (72 h, time 3 day) was 0%. For the same molecule, the EOSINOPHIL (72 h, time 3 day) was 1.33%, the “ERYTHROCYTE COUNT” value (72 h, time 3 day) was 5.59 x10E6/uL and the HEMATOCRIT (72 h, time 3 day) was 34.17%. For the same molecule, the HEMOGLOBIN (72 h, time 3 day) was 12.63 G/DL, the “LEUKOCYTE COUNT” value (72 h, time 3 day) was 14.53 x10E3/uL and the LYMPHOCYTE (72 h, time 3 day) was 82.33%. The “MEAN CORPUSCULAR HEMOGLOBIN” value (72 h, time 3 day) was 22.6 pg, the “MEAN CORPUSCULAR HEMOGLOBIN CONCENTRATION” value (72 h, time 3 day) was 36.97 G/DL and the “MEAN CORPUSCULAR VOLUME” value (72 h, time 3 day) was 61.1 fL. For the same molecule, the MONOCYTE (72 h, time 3 day) was 6%, the NEUTROPHIL (72 h, time 3 day) was 10.33% and the “NUCLEATED RED BLOOD CELLS” value (72 h, time 3 day) was 0 /100WBC. The “PLATELET COUNT” value (72 h, time 3 day) was 1050 x10E3/uL, the “ALANINE AMINOTRANSFERASE” value [1] was 72 u/L and the ALBUMIN [1] was 4.43 G/DL. The “ALKALINE PHOSPHATASE” value [1] was 400.67 u/L, the “ASPARTATE AMINOTRANSFERASE” value [1] was 94 u/L and the “BLOOD UREA NITROGEN” value [1] was 17.67 mg/dL. For the same molecule, the “CARBON DIOXIDE” value [1] was 23.33 mmol/L, the CHLORIDE [1] was 102.67 MEQ/L and the CHOLESTEROL [1] was 68 mg/dL. The CREATININE [1] was 0.19 mg/dL, the GLUCOSE [1] was 165 mg/dL and the “LACTATE DEHYDROGENASE” value [1] was 314.67 u/L. The LIPASE [1] was 8.33 u/L, the PHOSPHORUS [1] was 12.5 mg/dL and the POTASSIUM [1] was 6.48 MEQ/L. The SODIUM [1] was 144.2 MEQ/L, the “TOTAL BILIRUBIN” value [1] was 0.23 mg/dL and the “TOTAL PROTEIN” value [1] was 6 G/DL. The “URIC ACID” value [1] was 1.63 mg/dL, the “ABSOLUTE BASOPHIL” value (120 h, time 5 day) was 0 CELLS/uL and the “ABSOLUTE EOSINOPHIL” value (120 h, time 5 day) was 0 CELLS/uL. For the same molecule, the “ABSOLUTE LYMPHOCYTE” value (120 h, time 5 day) was 5905 CELLS/uL, the “ABSOLUTE MONOCYTE” value (120 h, time 5 day) was 88.67 CELLS/uL and the “ABSOLUTE SEGMENTED NEUTROPHIL” value (120 h, time 5 day) was 839.67 CELLS/uL. For the same molecule, the BASOPHIL (120 h, time 5 day) was 0%, the EOSINOPHIL (120 h, time 5 day) was 0% and the “ERYTHROCYTE COUNT” value (120 h, time 5 day) was 5.11 x10E6/uL. The HEMATOCRIT (120 h, time 5 day) was 31.43%, the HEMOGLOBIN (120 h, time 5 day) was 11.77 G/DL and the “LEUKOCYTE COUNT” value (120 h, time 5 day) was 6.83 x10E3/uL. For the same molecule, the LYMPHOCYTE (120 h, time 5 day) was 86.33%, the “MEAN CORPUSCULAR HEMOGLOBIN” value (120 h, time 5 day) was 23.1 pg and the “MEAN CORPUSCULAR HEMOGLOBIN CONCENTRATION” value (120 h, time 5 day) was 37.43 G/DL. The “MEAN CORPUSCULAR VOLUME” value (120 h, time 5 day) was 61.57 fL, the MONOCYTE (120 h, time 5 day) was 1.33% and the NEUTROPHIL (120 h, time 5 day) was 12.33%. For the same molecule, the “NUCLEATED RED BLOOD CELLS” value (120 h, time 5 day) was 0 /100WBC, the “PLATELET COUNT” value (120 h, time 5 day) was 990.67 x10E3/uL and the “ALANINE AMINOTRANSFERASE” value [2] was 50.33 u/L. The ALBUMIN [2] was 4.63 G/DL, the “ALKALINE PHOSPHATASE” value [2] was 303.67 u/L and the “ASPARTATE AMINOTRANSFERASE” value [2] was 73 u/L. The “BLOOD UREA NITROGEN” value [2] was 12.67 mg/dL, the “CARBON DIOXIDE” value [2] was 33 mmol/L and the CHLORIDE [2] was 99.67 MEQ/L. For the same molecule, the CHOLESTEROL [2] was 71.67 mg/dL, the CREATININE [2] was 0.15 mg/dL and the GLUCOSE [2] was 135.33 mg/dL. The “LACTATE DEHYDROGENASE” value [2] was 84.67 u/L, the LIPASE [2] was 8.67 u/L and the PHOSPHORUS [2] was 12.63 mg/dL. The POTASSIUM [2] was 6.25 MEQ/L, the SODIUM [2] was 146.5 MEQ/L and the “TOTAL BILIRUBIN” value [2] was 0.23 mg/dL. For the same molecule, the “TOTAL PROTEIN” value [2] was 6.5 G/DL.
